Reference: patent US8569378B2, “p27 protein inducer” (Chugai Seiyaku Kabushiki Kaisha, priority 2007, dated 2013)
pEC50, pIC50: −log10 of the molar value. Where a name gives a salt, the structure may show the parent alone.

What was measured:
[1] = test system: TNF-α; test: Measurement of TNF-α production inhibitory activity in LPS-stimulated THP-1 cells; assay type: cell-based; details: Homo sapiens, overnight, TNF-α in supernatant by ELISA, Table 3
Experimental: TNF-α is an inflammatory cytokine. It plays an important role in the initiation of inflammation, particularly in rheumatism. The TNF-α production inhibitory activities of the compounds or salts listed in Table 3 below were measured as follows.
THP-1 human monocytic leukemia cells (ATCC) were suspended to a cell density of 5×10^5 cells/mL in RPMI 1640 medium supplemented with 5% inactivated fetal bovine serum, and this suspension was aliquoted into a 96-well round-bottomed tissue culture plate at 0.2 mL/well. A solution of the test substance in DMSO was added to the suspension to a final concentration of […] and the mixture was subjected to pretreatment at 37° C. for 60 minutes. After pretreatment, lipopolysaccharide (LPS) from E. coli 055:B5 was added to a final concentration of […] and the mixture was incubated overnight in a 37° C., 5% CO^2 incubator. Then, the culture supernatant was collected from each well, and the concentration of TNF-α in the supernatant was determined with a human TNF-α ELISA kit (catalog no. KHC3011, BIOSOURCE) according to the manufacturer's instructions. The test substance concentration (IC50) at which 50% inhibition was achieved was calculated from the measurement.

[2] = test system: p27 protein; test: Quantification of p27 protein by ELISA (p27 protein-inducing activity, EC50); assay type: cell-based, human; details: NCI-H460 cells, 48 hours, p27 sandwich ELISA
Experimental: The p27 protein-inducing activities of the compounds or salts listed in Tables 1-1, 1-2 and 2 below were measured as follows.
Preparation of Cell Lysate:
NCI-H460 human non-small cell lung cancer cells (ATCC HTB-177) were plated in 6-well plates at 2×10^5 cells/well and incubated overnight. Then, the test substance was added to the medium to a final concentration of 10000 nmol/L, 3000 nmol/L, 100 nmol/L, 30 nmol/L, 10 nmol/L, 3 nmol/L, 1 nmol/L, 0.3 nmol/L, 0.1 nmol/L, 0.03 nmol/L or 0.01 nmol/L and the cells were incubated at 37° C. in 5% CO2 for 48 hours. 150 μL of Cell Lysis Buffer (catalog no. 9803, Cell Signaling) which had been diluted to 1-fold concentration (1 mM PMSF was added immediately before use) was added, and the mixture was allowed to stand on ice for 10 minutes. The Cell Lysis Buffer in which cells were lysed was collected together with cells with a scraper and transferred to a new tube. It was centrifuged at 15000 rpm for 10 minutes at 4° C. and the supernatant was then transferred to a new tube.
Quantification by Sandwich ELISA:
Anti-p27 monoclonal antibody (catalog no. 71-9600, Zymed) was diluted to 5 μg/mL in 50 mM carbonate coating buffer (0.4 g/L NaCO3, 0.73 g/L NaHCO3 and 0.04 g/L NaN3 in distilled water), and it was then added at 50 μL/well and allowed to stand overnight at 4° C. to bind the antibody. After washing three times with PBS, 200 μL of blocking solution (0.2% I-Block in PBS) was added to each well. After 1 hour of incubation at room temperature, washing with PBS-T (0.05% Tween 20 in PBS) was performed three times. The sample and recombinant p27 protein standard were serially diluted in Cell Lysis Buffer (catalog no. 9803, Cell Signaling) which had been diluted to 1-fold concentration (1 mM PMSF was added immediately before use), and it was then added at 100 μL/well. After 1 hour of incubation at room temperature, washing with 200 μL of PBS-T was performed three times. HRP-labeled anti-p27 antibody (product no. 610243, BD Transdution Laboratories) was diluted 1:2500 (i.e. to 0.1 μg/mL) in 0.2% I-Block/0.05% PBS-T, and it was then added at 100 μL/well. After 1 hour of incubation at room temperature, washing with 200 μL of PBS-T was performed three times. Chromogenic substrate solution (TMB One Solution, catalog no. G7431, Promega) was added at 100 μL/well and allowed to develop a color reaction at room temperature. After stopping the reaction with 50 μL of 1N H2SO4, the absorbance at 450 nm was measured.
Calculation of EC50 Values:
A standard response curve was generated by plotting the amount of p27 protein against the concentration of the test substance. The basal level of response was defined as 0%, while the plateau level where the induction of p27 protein had been maximized was defined as 100%. Finally, the test substance concentration at which 50% induction was achieved was calculated, and it was defined as EC50.

[3] = test system: type II collagen-induced arthritis; details: mouse, in vivo
Experimental: DBA/1JN mice (female, 8 weeks old, Charles River) were injected intradermally at the three sites of the base of the tail with 140 μL/mouse of a collagen gel prepared by mixing equal volumes of 0.3% aqueous bovine type II collagen solution (Collagen Technical Workshop) and complete Freund's adjuvant H37Ra (Difco). After 21 days, the mice were injected intradermally at the three sites of the back with 140 μL/mouse of a collagen gel prepared likewise. […] At every administration, the mice were treated at 0.04 mg/kg, 0.2 mg/kg, 1 mg/kg, 5 mg/kg or 25 mg/kg using 0.5% sodium carboxymethylcellulose as a vehicle. The mice treated with vehicle alone (i.e., the mice that were not treated with the test substance) were used as controls.
After the first collagen injection, arthritis score of each mouse was measured with time. The arthritis score was calculated by giving scores for both the toes and backs of all four paws of the mouse on the scale below and adding them together (the maximum possible total is 4 per paw and 16 per mouse).
Score 1: Moderate swelling

SMILES	pEC50 ([2]; Table 1-2)	pEC50 ([2]; Table 2)	pIC50 [1]	other results
CNS(=O)(=O)Nc1cccc(Cc2c(C)c3cc(Cl)c(OC(=O)N(C)C)cc3oc2=O)c1 [Compound 1j-1-3-2, Dimethylcarbamic acid 3-(3-(N-methylsulfamoyl)aminobenzyl)-6-chloro-4-methyl-2-oxo-2H-1-benzopyran-7-yl ester]			8.73	pEC50 ([2]; Table 1-1): 7.27
Cc1c(Cc2cccc(NS(N)(=O)=O)c2F)c(=O)oc2cc(OC(=O)N(C)C)c(F)cc12 [Compound 1j-1-5-1, Dimethylcarbamic acid 3-{2-fluoro-3-(aminosulfonyl)aminobenzyl}-6-fluoro-4-methyl-2-oxo-2H-1-benzopyran-7-yl ester]			9.03	pEC50 ([2]; Table 1-1): 6.23
CNS(=O)(=O)Nc1cc(Cc2c(C)c3ccc(OC(=O)N(C)C)cc3oc2=O)ccn1 [Compound 1j-1-10-2, Dimethylcarbamic acid 4-methyl-3-{2-(methylaminosulfonyl)-aminopyridin-4-ylmethyl}-2-oxo-2H-1-benzopyran-7-yl ester]	6.43		7.99	
CNS(=O)(=O)Nc1cc(Cc2c(C)c3cc(F)c(OC(=O)N(C)C)cc3oc2=O)ccn1 [Compound 1j-1-11-2, Dimethylcarbamic acid 4-methyl-3-{2-(methylaminosulfonyl)aminopyridin-4-ylmethyl}-6-fluoro-2-oxo-2H-1-benzopyran-7-yl ester]	6.48		8.28	
CNS(=O)(=O)Nc1cccc(Cc2c(C)c3ccc(Oc4ncccn4)cc3oc2=O)c1F [Compound 1j-2-4-2, 3-{2-Fluoro-3-(methylaminosulfonyl)aminobenzyl}-4-methyl-7-(pyrimidin-2-yloxy)-2-oxo-2H-1-benzopyran]		6.14	7.82	
CNS(=O)(=O)Nc1cccc(Cc2c(C)c3ccc(Oc4ncccn4)cc3oc2=O)c1F [Compound 1j-2-4-2Na, 3-{2-fluoro-3-(methylaminosulfonyl)aminobenzyl}-4-methyl-7-(pyrimidin-2-yloxy)-2-oxo-2H-1-benzopyran sodium salt]				type II collagen-induced arthritis (arthritis score) compared to the control group [3]: suppressed; type II collagen-induced arthritis (arthritis score), dose dependence [3]: dose-dependently suppressed
CNC(=O)CS(=O)(=O)Nc1cccc(Cc2c(C)c3cc(Cl)c(OC(=O)N(C)C)cc3oc2=O)c1 [Compound 1o-1-3-2, Dimethylcarbamic acid 3-(3-methylcarbamoylmethanesulfonylamino-benzyl)-6-chloro-4-methyl-2-oxo-2H-1-benzopyran-7-yl ester]				pEC50 ([2]; Table 1-1): 6.54
Cc1c(Cc2cccc(NS(=O)(=O)CC(=O)N(C)C)c2)c(=O)oc2cc(OC(=O)N(C)C)c(Cl)cc12 [Compound 1o-1-3-3, Dimethylcarbamic acid 3-(3-dimethylcarbamoylmethanesulfonylamino-benzyl)-6-chloro-4-methyl-2-oxo-2H-1-benzopyran-7-yl ester]				pEC50 ([2]; Table 1-1): 6.72

Continued, in another order:

pEC50 ([2]; Table 1-2)	pEC50 ([2]; Table 2)	SMILES	pIC50 [1]	other results
	5.74	Cc1c(Cc2cccc(NS(N)(=O)=O)c2F)c(=O)oc2cc(Oc3ncccn3)ccc12 [Compound 1j-2-4-1, 3-{2-Fluoro-3-(aminosulfonyl)aminobenzyl}-4-methyl-7-(pyrimidin-2-yloxy)-2-oxo-2H-1-benzopyran]	7.59	
	6.28	CNS(=O)(=O)Nc1cccc(Cc2c(CF)c3ccc(Oc4ncccn4)cc3oc2=O)c1F [Compound 1j-2-4-2F, 3-{2-Fluoro-3-(methylaminosulfonyl)aminobenzyl}-4-fluoromethyl-7-(pyrimidin-2-yloxy)-2-oxo-2H-1-benzopyran]	8.04	
	6.38	CNS(=O)(=O)Nc1cccc(Cc2c(C)c3cc(F)c(Oc4ncccn4)cc3oc2=O)c1F [Compound 1j-2-5-2, 3-{2-Fluoro-3-(methylaminosulfonyl)aminobenzyl}-4-methyl-7-(pyrimidin-2-yloxy)-6-fluoro-2-oxo-2H-1-benzopyran]	7.83	
6.37		Cc1c(Cc2cccc(NS(N)(=O)=O)c2F)c(=O)oc2cc(Oc3nccs3)ccc12 [Compound 1j-3-4-1, 3-{2-Fluoro-3-(aminosulfonyl)aminobenzyl}-4-methyl-7-(thiazol-2-yloxy)-2-oxo-2H-1-benzopyran]	8.13	
6.57		CNS(=O)(=O)Nc1cccc(Cc2c(C)c3ccc(Oc4nccs4)cc3oc2=O)c1F [Compound 1j-3-4-2, 3-{2-Fluoro-3-(methylaminosulfonyl)aminobenzyl}-4-methyl-7-(thiazol-2-yloxy)-2-oxo-2H-1-benzopyran]	8.74	
7.00		CNS(=O)(=O)Nc1cc(Cc2c(C)c3cc(C)c(Oc4nccs4)cc3oc2=O)ccn1 [Compound 1j-3-20-2, 3-{2-(Methylaminosulfonyl)aminopyridin-4-ylmethyl}-4-methyl-6-methyl-7-(thiazol-2-yloxy)-2-oxo-2H-1-benzopyran]		
6.69		CNS(=O)(=O)Nc1nccc(Cc2c(C)c3cc(C)c(Oc4nccs4)cc3oc2=O)c1Cl [Compound 1j-3-44-2, 3-{2-(Methylaminosulfonyl)amino-3-chloropyridin-4-ylmethyl}-4-methyl-6-methyl-7-(thiazol-2-yloxy)-2-oxo-2H-1-benzopyran]		
	5.58	CNC(=O)CS(=O)(=O)Nc1cccc(Cc2c(C)c3ccc(Oc4nccs4)cc3oc2=O)c1F [Compound 1o-3-4-2, 2-{2-Fluoro-3-[4-methyl-2-oxo-7-(thiazol-2-yloxy)-2H-1-benzopyran-3-ylmethyl]phenylsulfamoyl}-N-methyl-acetamide]		
